What was measured:
Assay in all cases: biochemical
[1] = target: PIK3C2G (PI3K-C2 gamma) (Homo sapiens, UniProt O75747); conditions: read-out: % inhibition mean (Adapta)
[2] = target: LRRK2 (Homo sapiens, UniProt Q5S007); conditions: read-out: % inhibition mean (Adapta)
[3] = target: DAPK1 (Homo sapiens, UniProt P53355); conditions: read-out: % inhibition mean (Adapta)
[4] = target: SPHK1 (Homo sapiens, UniProt Q9NYA1); conditions: read-out: % inhibition mean (Adapta)
[5] = target: PIK3CA/PIK3R3 (p110 alpha/p55 gamma) (Homo sapiens, UniProt P42336); conditions: read-out: % inhibition mean (Adapta)
[6] = target: CDK6/cyclin D1 (Homo sapiens, UniProt Q00534); conditions: read-out: % inhibition mean (Adapta)
[7] = target: LRRK2 FL (Homo sapiens, UniProt Q5S007); conditions: read-out: % inhibition mean (Adapta)
[8] = target: PIK3C2B (PI3K-C2 beta) (Homo sapiens, UniProt O00750); conditions: read-out: % inhibition mean (Adapta)
[9] = target: CDK9/cyclin T1 (Homo sapiens, UniProt P50750); conditions: read-out: % inhibition mean (Adapta)
[10] = target: CDK4/cyclin D1 (Homo sapiens, UniProt P11802); conditions: read-out: % inhibition mean (Adapta)
[11] = target: CDK7/cyclin H/MNAT1 (Homo sapiens, UniProt P50613); conditions: read-out: % inhibition mean (Adapta)
[12] = target: PIP5K1C (Homo sapiens, UniProt O60331); conditions: read-out: % inhibition mean (Adapta)
[13] = target: PIP4K2A (Homo sapiens, UniProt P48426); conditions: read-out: % inhibition mean (Adapta)
[14] = target: PIK3CB/PIK3R2 (p110 beta/p85 beta) (Homo sapiens, UniProt P42338); conditions: read-out: % inhibition mean (Adapta)
[15] = target: PIK3CG (p110 gamma) (Homo sapiens, UniProt P48736); conditions: read-out: % inhibition mean (Adapta)
[16] = target: PIK3C3 (hVPS34) (Homo sapiens, UniProt Q8NEB9); conditions: read-out: % inhibition mean (Adapta)
[17] = target: CDK4/cyclin D3 (Homo sapiens, UniProt P11802); conditions: read-out: % inhibition mean (Adapta)
[18] = target: PIP5K1A (Homo sapiens, UniProt Q99755); conditions: read-out: % inhibition mean (Adapta)
[19] = target: LRRK2 R1441C (Homo sapiens, UniProt Q5S007, R1441C); conditions: read-out: % inhibition mean (Adapta)
[20] = target: PIK3CD/PIK3R1 (p110 delta/p85 alpha) (Homo sapiens, UniProt O00329); conditions: read-out: % inhibition mean (Adapta)
[21] = target: PIP5K1B (Homo sapiens, UniProt O14986); conditions: read-out: % inhibition mean (Adapta)
[22] = target: GSG2 (Haspin) (Homo sapiens, UniProt Q8TF76); conditions: read-out: % inhibition mean (Adapta)
[23] = target: STK33 (Homo sapiens, UniProt Q9BYT3); conditions: read-out: % inhibition mean (Lanthascreen)
[24] = target: NIM1K (Homo sapiens, UniProt Q8IY84); conditions: read-out: % inhibition mean (Z'Lyte)
[25] = target: HCK (Homo sapiens, UniProt P08631); conditions: read-out: % inhibition mean (Z'Lyte)
[26] = target: PDGFRA T674I (Homo sapiens, UniProt P16234, T674I); conditions: read-out: % inhibition mean (Z'Lyte)
[27] = target: PRKG2 (PKG2) (Homo sapiens, UniProt Q13237); conditions: read-out: % inhibition mean (Z'Lyte)
[28] = target: TYK2 (Homo sapiens, UniProt P29597); conditions: read-out: % inhibition mean (Z'Lyte)

Sequence of CDK6/cyclin D1 (Q00534 whole entry): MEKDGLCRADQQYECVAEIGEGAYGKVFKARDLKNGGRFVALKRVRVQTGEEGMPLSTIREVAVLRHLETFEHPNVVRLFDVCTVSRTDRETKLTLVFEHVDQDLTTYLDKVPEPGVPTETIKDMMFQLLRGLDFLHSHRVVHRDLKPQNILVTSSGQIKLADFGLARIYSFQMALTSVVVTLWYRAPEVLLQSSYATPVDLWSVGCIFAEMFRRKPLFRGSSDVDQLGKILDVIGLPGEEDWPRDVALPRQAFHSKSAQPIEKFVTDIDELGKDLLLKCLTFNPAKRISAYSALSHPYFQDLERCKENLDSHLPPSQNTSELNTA
Sequence of CDK6/cyclin D1 (P24385 whole entry partner): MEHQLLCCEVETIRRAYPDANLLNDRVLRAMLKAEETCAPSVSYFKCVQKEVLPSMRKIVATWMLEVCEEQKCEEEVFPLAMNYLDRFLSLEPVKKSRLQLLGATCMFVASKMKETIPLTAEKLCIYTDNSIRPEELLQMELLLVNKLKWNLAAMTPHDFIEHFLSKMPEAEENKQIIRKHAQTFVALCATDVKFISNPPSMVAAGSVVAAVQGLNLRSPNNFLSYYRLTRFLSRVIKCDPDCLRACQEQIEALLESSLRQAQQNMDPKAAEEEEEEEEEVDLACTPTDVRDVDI
Sequence of PIP5K1A (Q99755 whole entry): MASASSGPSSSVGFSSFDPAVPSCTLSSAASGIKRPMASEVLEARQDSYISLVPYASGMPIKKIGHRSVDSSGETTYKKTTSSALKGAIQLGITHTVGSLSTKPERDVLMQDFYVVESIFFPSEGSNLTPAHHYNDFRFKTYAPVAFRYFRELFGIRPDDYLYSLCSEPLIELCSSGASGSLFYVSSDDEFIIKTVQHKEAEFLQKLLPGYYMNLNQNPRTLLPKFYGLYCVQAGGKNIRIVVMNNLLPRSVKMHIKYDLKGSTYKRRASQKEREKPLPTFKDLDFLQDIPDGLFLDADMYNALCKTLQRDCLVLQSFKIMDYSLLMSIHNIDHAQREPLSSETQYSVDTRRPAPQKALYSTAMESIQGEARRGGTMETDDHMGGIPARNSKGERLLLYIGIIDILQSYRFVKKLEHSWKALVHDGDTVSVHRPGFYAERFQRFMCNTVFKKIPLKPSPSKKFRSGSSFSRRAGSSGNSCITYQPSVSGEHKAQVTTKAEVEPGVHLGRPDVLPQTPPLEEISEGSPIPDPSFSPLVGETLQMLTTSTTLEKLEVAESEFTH
Sequence of DAPK1 (P53355 whole entry): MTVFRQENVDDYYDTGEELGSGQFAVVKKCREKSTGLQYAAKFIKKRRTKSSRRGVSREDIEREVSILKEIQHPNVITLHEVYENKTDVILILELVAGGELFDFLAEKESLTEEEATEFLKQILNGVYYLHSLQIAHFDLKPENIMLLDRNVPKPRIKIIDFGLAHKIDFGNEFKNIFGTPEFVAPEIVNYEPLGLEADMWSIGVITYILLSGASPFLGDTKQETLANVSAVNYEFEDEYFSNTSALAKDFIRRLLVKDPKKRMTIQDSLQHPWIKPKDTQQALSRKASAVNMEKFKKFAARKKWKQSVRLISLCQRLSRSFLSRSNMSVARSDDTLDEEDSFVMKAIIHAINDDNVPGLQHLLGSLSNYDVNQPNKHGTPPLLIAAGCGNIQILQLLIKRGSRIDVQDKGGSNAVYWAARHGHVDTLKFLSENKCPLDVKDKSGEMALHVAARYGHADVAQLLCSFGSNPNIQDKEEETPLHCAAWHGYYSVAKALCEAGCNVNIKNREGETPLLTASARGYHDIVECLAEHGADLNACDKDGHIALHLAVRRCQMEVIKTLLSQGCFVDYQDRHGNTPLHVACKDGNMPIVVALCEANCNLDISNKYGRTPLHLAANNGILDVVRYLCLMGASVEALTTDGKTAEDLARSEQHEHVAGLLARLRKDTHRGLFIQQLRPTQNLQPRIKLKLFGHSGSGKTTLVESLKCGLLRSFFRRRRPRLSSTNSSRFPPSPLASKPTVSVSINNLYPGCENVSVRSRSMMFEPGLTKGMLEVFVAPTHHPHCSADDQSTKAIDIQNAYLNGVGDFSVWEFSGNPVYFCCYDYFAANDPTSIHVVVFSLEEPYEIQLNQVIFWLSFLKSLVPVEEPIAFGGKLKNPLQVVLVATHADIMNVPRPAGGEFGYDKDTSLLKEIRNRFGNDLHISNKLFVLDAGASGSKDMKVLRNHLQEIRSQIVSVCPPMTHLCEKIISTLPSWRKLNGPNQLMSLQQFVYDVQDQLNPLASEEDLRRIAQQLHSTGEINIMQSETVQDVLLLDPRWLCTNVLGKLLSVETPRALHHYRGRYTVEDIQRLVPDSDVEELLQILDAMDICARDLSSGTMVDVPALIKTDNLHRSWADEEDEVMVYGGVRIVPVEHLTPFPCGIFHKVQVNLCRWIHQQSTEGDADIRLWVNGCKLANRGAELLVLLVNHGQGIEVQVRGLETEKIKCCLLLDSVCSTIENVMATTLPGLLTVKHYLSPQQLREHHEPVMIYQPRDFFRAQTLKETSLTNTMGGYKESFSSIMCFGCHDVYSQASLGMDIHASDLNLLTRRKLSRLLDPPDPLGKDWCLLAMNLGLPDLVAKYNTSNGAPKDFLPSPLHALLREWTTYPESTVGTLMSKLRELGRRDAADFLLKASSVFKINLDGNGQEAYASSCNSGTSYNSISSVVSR
Sequence of PIK3CB/PIK3R2 (p110 beta/p85 beta) (P42338 whole entry): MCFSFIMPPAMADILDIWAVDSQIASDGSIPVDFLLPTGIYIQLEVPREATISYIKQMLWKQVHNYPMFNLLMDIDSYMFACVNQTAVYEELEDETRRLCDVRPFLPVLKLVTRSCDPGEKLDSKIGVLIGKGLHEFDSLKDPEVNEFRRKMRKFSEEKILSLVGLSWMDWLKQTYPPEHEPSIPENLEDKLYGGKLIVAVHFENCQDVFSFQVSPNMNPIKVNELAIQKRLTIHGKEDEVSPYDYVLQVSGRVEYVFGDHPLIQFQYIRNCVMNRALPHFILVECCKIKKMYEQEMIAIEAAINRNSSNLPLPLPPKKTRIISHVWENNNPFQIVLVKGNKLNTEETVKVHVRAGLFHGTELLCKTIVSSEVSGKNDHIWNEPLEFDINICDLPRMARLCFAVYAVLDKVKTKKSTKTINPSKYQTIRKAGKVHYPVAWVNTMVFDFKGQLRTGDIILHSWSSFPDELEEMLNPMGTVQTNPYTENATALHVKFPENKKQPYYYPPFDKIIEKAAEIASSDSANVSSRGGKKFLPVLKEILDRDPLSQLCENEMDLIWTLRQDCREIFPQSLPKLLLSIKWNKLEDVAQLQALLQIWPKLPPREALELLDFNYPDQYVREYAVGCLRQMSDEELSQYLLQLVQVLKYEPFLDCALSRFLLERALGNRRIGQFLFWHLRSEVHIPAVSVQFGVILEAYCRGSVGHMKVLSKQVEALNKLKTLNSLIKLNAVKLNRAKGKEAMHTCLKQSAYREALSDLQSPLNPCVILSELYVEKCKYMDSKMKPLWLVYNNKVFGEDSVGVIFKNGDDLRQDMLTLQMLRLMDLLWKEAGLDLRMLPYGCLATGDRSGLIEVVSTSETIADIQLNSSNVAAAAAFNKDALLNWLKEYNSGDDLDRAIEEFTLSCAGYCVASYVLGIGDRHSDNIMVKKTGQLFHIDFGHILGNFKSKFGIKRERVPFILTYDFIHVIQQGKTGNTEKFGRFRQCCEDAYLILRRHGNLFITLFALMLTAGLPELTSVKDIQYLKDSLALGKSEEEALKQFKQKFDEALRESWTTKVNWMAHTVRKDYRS
Sequence of PIK3CB/PIK3R2 (p110 beta/p85 beta) (O00459 whole entry partner): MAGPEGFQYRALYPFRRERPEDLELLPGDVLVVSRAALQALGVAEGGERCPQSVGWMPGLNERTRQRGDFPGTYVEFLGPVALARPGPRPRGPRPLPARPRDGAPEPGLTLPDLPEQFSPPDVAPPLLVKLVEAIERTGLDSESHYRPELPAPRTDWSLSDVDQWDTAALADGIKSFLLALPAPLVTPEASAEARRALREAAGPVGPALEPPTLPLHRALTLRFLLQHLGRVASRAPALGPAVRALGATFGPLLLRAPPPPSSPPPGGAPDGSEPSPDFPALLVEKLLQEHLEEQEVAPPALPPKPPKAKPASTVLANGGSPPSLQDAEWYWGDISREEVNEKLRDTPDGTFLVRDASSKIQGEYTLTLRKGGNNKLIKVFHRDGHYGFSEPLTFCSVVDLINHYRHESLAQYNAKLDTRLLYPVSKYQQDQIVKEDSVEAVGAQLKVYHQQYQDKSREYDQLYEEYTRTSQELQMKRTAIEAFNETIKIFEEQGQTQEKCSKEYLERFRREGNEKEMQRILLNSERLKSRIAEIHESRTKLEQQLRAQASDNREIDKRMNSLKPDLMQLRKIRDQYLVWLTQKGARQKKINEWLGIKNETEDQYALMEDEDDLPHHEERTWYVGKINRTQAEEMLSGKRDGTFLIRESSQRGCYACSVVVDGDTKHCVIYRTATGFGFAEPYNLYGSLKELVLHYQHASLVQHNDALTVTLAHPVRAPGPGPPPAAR
Sequence of NIM1K (Q8IY84 whole entry): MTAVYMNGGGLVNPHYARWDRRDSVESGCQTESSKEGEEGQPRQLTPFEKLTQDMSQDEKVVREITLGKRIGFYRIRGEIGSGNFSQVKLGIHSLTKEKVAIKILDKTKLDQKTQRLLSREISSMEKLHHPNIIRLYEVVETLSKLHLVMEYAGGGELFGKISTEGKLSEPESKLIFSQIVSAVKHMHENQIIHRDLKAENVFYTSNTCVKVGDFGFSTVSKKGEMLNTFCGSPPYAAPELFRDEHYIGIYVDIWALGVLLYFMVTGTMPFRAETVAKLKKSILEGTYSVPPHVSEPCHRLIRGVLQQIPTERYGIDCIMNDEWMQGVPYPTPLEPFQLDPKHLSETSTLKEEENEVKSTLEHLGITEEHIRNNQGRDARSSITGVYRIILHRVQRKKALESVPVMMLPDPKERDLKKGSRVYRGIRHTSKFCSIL

Molecule `COc1ccc2nc3cc(Cl)ccc3c(Nc3cc(CN4CCCC4)c(O)c(CN4CCCC4)c3)c2n1` [Pyronaridine, 4-[(7-Chloro-2-methoxybenzo[b][1,5]naphthyridin-10-yl)amino]-2,6-bis(1-pyrrolidinylmethyl)phenol phosphate (1:4)] has an inhibition at 1 µM [1] of 3%, an inhibition at 1 µM [2] of -2% and an inhibition at 1 µM [3] of 11%. For the same molecule, the inhibition at 1 µM [4] was 10%, the inhibition at 1 µM [5] was 1% and the inhibition at 1 µM [6] was 1%. The inhibition at 1 µM [7] was -4%, the inhibition at 1 µM [8] was -5% and the inhibition at 1 µM [9] was 5%. The inhibition at 1 µM [10] was 1%, the inhibition at 1 µM [11] was -13% and the inhibition at 1 µM [12] was -3%. It also gave an inhibition at 1 µM [13] of 15%, an inhibition at 1 µM [14] of -2% and an inhibition at 1 µM [15] of 2%. The inhibition at 1 µM [16] was -4%, the inhibition at 1 µM [17] was -6% and the inhibition at 1 µM [18] was -6%. It also gave an inhibition at 1 µM [19] of -7%, an inhibition at 1 µM [20] of 9% and an inhibition at 1 µM [21] of -11%. It also gave an inhibition at 1 µM [22] of 9%, an inhibition at 1 µM [23] of 11% and an inhibition at 1 µM [24] of -2%. The inhibition at 1 µM [25] was 4%, the inhibition at 1 µM [26] was 0% and the inhibition at 1 µM [27] was 1%. It also gave an inhibition at 1 µM [28] of 0%.

Source: article doi:10.1101/2021.09.30.462449v1 (biorxiv, 2021)
